This assay relates to VEGF promoter (luciferase reporter) in Hep3B cells. The assay can be described thus: Cell-based assay of VEGF gene transcription (VEGF-Luciferase assay). The settings on record: Hep3B cells stably expressing VEGF-luciferase construct; 100 μM desferoxamine, 18 hours; read-out: IC50 (concentration of compound required to cause a 50% reduction of the luciferase signal). On the procedure: Cell-Based Assay of VEGF Gene Transcription (VEGF-Luciferase Assay).
The activity of compounds is determined by a cell-based reporter assay which uses the hepatoma 3B (Hep3B) cell line.
This assay involves the use of a luciferase reporter gene under the direct control of the VEGF promoter. Induction of the hypoxic response using desferoxamine leads to the transcription of luciferase through activation of the VEGF promoter, which in turn leads to an increase in luciferse activity, which can be measured using most of commercially available luciferase assay kits. Molecules which inhibit the activation of the VEGF promoter can thus be detected.
This assay can be run using a Hep3B cell line which stably expresses the VEGF-luciferase construct.
Hep3B cells (ATCC Ref. No. HB-8064) are plated in 6-well plates at 2.5×10^5 cells/well in 2 mL DMEM/10% FCS and are transfected the following day using Fugene 6 (Roche Biochemicals®). Transfection mixtures per well contain 6 μL Fugene 6 transfection reagent, 1 μg of pxp2-VEGF-luciferase reporter (rat VEGF promoter, NCBI GenBank accession no. U22373, Levy et al., 1995), plus pcDNA3.1(+) Neomycin resistance vector (INVITROGEN). […]
Luciferase activity is measured using the Bright Glo Luciferase Assay System (Promega®, see also technical Manual, Part #TM052, Instructions for Use of Products E2620 and E2650, revised 10/00). […]

Each structure is given as a SMILES string. Where only a bound is given, the exact number is not on record here.

`CCN(CC)c1ccc2cc(-c3nc(-c4ccccc4)cs3)c(=O)oc2c1` [Example 8]: the IC50 was less than 10 µM.

The values above are taken from patent US20060122387A1, “Derivatives of chromen-2-one as inhibitors of vegf production in mammalian cells” (CTI Europe S.r.l., priority 2002, published 2006).
